# Test results reported in ChEMBL document CHEMBL1201862, “PubChem BioAssay data set” (2004).
# Active and inactive are the calls of the source.
# Legend:
# [1] = biological target: T1, Leucine aminopeptidase (Plasmodium falciparum 3D7, UniProt Q8IL11); experiment: P. falciparum M17LAP inhibitors, primary screen, biochemical, fluorogenic H-Leu-NHMec substrate, 1536-well (AID 1619); format: functional
# T1 sequence (Q8IL11 whole entry): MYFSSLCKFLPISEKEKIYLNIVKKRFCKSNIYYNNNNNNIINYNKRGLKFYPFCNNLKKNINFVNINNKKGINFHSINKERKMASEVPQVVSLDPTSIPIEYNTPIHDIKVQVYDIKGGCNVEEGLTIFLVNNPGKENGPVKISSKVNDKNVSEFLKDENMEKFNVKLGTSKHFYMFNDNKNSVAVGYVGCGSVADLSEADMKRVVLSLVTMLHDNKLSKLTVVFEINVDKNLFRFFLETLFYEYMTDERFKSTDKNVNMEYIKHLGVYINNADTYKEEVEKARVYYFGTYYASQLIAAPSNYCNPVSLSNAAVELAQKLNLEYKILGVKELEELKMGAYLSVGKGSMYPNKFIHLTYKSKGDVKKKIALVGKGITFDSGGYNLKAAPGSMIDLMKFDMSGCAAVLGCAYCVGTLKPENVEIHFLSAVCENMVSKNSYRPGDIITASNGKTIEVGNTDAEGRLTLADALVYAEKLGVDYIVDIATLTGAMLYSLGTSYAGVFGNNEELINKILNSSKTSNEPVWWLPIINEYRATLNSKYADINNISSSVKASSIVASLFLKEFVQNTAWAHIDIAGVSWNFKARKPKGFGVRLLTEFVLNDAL
# [2] = tested on: HEK293; experiment: cells; format: functional, cell-based; settings: Homo sapiens
# [3] = tested on: HEK293; experiment: cells; format: functional, cell-based; settings: Homo sapiens; remark: listed apart in the source
# [4] = tested on: HEK293; experiment: NOD2 signaling inhibitors in MDP-stimulated cells, cell-based, uHTS, luminescence (AID 2001); format: functional; settings: Homo sapiens
# [5] = biological target: Voltage-dependent T-type calcium channel subunit alpha-1H (Homo sapiens, UniProt O95180); format: functional;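 note: channel activity triggered by adding a high calcium stimulation buffer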
# Voltage-dependent T-type calcium channel subunit alpha-1H, sequence (O95180 whole entry): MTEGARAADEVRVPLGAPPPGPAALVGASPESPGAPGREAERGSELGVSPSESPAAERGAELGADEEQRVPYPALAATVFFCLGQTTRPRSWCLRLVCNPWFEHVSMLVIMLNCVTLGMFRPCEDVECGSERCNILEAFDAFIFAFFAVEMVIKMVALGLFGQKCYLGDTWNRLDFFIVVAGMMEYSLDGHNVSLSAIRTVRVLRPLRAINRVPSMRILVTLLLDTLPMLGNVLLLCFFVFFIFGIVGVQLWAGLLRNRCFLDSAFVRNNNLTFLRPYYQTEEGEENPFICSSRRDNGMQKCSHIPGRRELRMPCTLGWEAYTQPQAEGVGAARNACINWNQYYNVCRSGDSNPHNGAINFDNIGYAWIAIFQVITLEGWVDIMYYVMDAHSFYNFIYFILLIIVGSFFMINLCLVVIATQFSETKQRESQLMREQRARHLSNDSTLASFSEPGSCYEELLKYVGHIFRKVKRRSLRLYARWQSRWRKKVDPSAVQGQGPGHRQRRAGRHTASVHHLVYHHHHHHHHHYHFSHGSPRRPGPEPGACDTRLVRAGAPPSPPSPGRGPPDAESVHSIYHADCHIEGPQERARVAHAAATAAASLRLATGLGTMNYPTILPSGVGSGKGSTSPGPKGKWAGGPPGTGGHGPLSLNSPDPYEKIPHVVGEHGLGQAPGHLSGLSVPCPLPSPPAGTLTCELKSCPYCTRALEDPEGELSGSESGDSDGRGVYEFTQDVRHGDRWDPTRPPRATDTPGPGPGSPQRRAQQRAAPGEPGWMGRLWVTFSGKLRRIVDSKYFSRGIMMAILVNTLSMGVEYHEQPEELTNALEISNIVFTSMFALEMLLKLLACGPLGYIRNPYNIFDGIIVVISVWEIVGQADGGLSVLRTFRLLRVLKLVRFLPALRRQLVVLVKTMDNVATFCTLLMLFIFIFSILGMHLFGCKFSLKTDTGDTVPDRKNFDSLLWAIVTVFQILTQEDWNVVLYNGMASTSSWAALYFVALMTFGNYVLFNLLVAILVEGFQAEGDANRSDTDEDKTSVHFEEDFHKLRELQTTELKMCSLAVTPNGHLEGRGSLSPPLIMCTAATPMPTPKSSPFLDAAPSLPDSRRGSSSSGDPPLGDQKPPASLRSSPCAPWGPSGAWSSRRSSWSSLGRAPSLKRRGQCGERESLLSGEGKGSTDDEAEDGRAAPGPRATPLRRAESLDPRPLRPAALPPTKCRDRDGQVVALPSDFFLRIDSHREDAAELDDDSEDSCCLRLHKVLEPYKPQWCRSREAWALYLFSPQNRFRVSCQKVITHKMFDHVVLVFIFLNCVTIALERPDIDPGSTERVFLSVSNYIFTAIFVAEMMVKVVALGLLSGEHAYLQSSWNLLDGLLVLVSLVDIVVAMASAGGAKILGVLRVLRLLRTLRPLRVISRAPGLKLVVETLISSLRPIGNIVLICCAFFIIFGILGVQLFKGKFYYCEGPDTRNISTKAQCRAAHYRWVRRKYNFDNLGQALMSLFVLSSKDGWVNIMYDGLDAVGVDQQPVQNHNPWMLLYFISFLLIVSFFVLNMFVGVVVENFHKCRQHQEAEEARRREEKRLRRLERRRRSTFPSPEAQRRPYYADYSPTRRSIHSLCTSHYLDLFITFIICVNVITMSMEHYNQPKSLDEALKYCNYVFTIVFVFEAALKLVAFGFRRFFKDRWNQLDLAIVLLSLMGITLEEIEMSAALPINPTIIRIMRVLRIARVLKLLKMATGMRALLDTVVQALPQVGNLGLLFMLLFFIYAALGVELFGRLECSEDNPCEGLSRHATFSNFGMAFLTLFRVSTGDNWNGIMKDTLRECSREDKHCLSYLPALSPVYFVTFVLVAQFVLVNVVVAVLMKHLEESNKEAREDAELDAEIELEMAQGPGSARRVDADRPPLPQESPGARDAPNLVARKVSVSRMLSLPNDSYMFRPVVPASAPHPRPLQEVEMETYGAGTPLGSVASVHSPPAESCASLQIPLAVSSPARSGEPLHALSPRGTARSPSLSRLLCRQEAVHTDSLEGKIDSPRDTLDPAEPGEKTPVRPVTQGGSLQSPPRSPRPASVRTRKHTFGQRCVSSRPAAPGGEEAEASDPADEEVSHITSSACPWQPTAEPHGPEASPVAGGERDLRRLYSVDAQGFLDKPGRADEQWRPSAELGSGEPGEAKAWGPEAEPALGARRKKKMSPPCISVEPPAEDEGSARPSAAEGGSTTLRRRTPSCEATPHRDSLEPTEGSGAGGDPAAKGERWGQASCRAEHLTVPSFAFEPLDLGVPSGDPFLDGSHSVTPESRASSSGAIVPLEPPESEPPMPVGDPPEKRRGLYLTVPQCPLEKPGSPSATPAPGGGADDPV
# [6] = biological target: Large T antigen (Simian virus 40, UniProt P03070); format: functional, Betapolyomavirus macacae;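 note: Confirmatory-stage PubChem screen for compounds that inhibit SV40 T antigen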
# Large T antigen, sequence (P03070 whole entry): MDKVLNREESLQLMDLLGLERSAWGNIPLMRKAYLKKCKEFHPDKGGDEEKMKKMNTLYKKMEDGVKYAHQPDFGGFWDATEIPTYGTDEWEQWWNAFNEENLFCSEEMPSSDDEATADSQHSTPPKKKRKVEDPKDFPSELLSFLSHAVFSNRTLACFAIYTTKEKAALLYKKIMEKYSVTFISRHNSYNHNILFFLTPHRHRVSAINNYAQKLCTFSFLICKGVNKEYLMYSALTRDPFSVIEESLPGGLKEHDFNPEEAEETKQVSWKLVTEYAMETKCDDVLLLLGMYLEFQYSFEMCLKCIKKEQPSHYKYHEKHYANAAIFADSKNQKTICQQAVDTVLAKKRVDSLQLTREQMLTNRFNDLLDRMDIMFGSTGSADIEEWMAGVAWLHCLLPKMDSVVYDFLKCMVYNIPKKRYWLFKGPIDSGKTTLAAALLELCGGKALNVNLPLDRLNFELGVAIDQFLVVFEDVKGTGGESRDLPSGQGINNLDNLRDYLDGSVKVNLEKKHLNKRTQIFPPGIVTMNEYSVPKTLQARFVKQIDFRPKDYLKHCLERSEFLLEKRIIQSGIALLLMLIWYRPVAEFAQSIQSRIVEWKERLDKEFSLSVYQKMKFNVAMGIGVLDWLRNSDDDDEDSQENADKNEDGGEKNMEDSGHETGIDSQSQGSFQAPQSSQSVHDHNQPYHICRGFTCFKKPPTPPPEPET
# [7] = tested on: BJ; experiment: cytotoxicity toward BJ-TERT fibroblasts, dose response, cell-based, RAS-independent, luminescence (AID 1933); format: functional; settings: Homo sapiens
# [8] = tested on: BJ; experiment: cells; format: functional, cell-based; settings: Homo sapiens
# [9] = tested on: BJ; experiment: cytotoxicity toward BJ-TERT-LT-ST fibroblasts, dose response, cell-based, RAS-independent, luminescence (AID 1935); format: functional; settings: Homo sapiens;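 note: BJ fibroblasts immortalized with TERT plus LT and ST oncogenes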
# [10] = cytotoxicity toward DRD oncogenic fibroblasts, dose response, cell-based, non-viral oncogenic, luminescence (AID 1934); format: functional; settings: Homo sapiens
# [11] = biological target: T2, Endoribonuclease toxin MazF (Escherichia coli K-12, UniProt P0AE70); experiment: MazF toxin RNase activators, dose response, biochemical, fluorescence, single-stranded RNA substrate, uHTS hits (AID 588481); format: functional
# T2 sequence (P0AE70 whole entry): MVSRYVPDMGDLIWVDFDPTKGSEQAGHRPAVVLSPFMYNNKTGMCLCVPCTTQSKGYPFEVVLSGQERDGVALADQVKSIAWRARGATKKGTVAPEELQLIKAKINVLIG
# [12] = biological target: T2, Endoribonuclease toxin MazF; experiment: fluorescent RNA oligo signal without MazF, dose response, counter-screen for MazEF activator project, biochemical, fluorescence, single-stranded RNase substrate (AID 588502); format: functional
# [13] = biological target: Heat shock protein HSP 90-alpha (Homo sapiens, UniProt P07900); format: functional, organism-based
# [14] = biological target: T3, Corticotropin-releasing factor receptor 2/Corticotropin-releasing factor-binding protein (Homo sapiens, UniProt P24387+Q13324); experiment: activators of CRF receptor 2 with binding protein – uHTS hits, confirmation (AID 602473); format: functional; settings: read-out: EC50_Mean
# T3 sequence (Q13324 whole entry): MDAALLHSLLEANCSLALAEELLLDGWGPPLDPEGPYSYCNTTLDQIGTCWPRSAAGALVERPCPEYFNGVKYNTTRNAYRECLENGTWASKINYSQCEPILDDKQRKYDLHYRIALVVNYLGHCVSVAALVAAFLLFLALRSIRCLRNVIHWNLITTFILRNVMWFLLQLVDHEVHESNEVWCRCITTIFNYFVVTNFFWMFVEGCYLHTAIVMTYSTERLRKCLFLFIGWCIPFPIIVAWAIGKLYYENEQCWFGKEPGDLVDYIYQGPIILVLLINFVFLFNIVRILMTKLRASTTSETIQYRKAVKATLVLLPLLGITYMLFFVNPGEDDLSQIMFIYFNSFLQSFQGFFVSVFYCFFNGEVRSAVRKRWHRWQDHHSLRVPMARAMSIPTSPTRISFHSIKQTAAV
# T3 sequence (P24387 whole entry): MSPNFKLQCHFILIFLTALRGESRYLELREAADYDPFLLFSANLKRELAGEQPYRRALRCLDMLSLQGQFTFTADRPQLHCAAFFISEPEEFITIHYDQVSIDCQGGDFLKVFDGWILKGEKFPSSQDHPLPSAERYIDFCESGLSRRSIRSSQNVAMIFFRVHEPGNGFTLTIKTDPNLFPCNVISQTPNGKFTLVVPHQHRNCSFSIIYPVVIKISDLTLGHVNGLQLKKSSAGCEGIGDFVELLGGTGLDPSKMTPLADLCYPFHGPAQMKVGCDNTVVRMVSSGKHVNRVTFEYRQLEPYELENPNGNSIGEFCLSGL
# [15] = cells; format: functional, cell-based
# [16] = cells; format: functional, cell-based; remark: listed apart in the source
# [17] = biological target: T4, RNA-binding protein pos-1 (Caenorhabditis elegans, UniProt G5EF15); experiment: inhibitors of POS-1/mex-3 RNA binding, dose response, biochemical, fluorescence polarization (AID 1964);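 note: purified POS-1 fused to maltose binding protein made in E. coli; potency of compounds blocking POS-1 binding to fluorescent RNA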
# T4 sequence (G5EF15 whole entry): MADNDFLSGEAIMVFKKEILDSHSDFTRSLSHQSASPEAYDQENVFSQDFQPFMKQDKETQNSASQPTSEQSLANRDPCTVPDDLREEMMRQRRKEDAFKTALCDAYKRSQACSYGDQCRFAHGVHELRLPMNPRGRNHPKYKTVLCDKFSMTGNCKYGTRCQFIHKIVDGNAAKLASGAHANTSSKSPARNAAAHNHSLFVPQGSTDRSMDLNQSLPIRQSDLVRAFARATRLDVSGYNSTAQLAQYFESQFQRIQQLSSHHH
# [18] = biological target: T5, Zinc finger protein mex-5 (Caenorhabditis elegans, UniProt Q9XUB2); experiment: MEX-5/TCR-2 RNA interaction inhibitors, dose response, biochemical, C. elegans, fluorescence polarization (AID 1960)
# T5 sequence (Q9XUB2 whole entry): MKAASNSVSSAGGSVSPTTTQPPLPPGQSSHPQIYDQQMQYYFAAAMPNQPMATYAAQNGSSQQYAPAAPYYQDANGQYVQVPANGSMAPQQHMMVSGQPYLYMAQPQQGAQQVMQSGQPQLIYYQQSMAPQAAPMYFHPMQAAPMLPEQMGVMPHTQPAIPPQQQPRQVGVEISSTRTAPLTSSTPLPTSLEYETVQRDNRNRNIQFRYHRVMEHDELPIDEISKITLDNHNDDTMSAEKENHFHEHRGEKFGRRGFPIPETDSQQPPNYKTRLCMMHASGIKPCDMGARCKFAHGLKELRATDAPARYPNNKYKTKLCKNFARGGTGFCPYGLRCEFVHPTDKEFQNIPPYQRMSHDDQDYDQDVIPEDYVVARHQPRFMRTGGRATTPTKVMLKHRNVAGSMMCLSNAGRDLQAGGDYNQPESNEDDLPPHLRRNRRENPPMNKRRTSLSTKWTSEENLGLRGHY
# [19] = biological target: Genome polyprotein (dengue virus type 2, UniProt P29990); experiment: Dengue-2 NS5 methyltransferase inhibitors, primary screen, biochemical, confirmation dose response (AID 588689); format: functional
# Genome polyprotein, sequence (P29990 2492-3391 limits assumed): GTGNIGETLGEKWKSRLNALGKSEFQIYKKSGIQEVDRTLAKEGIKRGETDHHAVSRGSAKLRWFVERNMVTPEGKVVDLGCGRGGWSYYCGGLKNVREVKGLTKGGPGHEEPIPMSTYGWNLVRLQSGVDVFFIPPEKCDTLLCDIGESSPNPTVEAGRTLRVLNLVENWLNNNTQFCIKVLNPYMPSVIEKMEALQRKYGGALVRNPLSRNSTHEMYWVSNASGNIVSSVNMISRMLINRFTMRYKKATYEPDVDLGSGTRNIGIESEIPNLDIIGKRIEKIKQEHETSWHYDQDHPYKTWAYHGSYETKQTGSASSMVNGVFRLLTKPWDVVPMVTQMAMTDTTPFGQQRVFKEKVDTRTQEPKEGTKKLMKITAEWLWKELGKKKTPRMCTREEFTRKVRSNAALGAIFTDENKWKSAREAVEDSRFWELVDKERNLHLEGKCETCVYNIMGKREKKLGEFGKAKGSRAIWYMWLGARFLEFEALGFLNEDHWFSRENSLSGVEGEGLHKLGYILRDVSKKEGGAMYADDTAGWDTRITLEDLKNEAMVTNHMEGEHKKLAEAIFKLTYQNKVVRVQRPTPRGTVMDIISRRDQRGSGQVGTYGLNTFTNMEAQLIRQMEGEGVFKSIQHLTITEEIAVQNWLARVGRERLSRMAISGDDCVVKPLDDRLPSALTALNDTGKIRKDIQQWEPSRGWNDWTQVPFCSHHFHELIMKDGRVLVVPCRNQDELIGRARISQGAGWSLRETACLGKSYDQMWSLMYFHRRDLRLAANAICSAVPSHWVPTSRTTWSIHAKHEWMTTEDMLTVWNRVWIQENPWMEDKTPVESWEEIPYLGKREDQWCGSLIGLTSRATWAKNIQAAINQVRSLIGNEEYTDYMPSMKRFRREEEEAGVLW
# [20] = biological target: T6, Cytochrome P450 1A2 (Homo sapiens, UniProt P05177);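 note: PubChem cytochrome P450 panel assay, CYP1A2 panel member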
# T6 sequence (P05177 whole entry): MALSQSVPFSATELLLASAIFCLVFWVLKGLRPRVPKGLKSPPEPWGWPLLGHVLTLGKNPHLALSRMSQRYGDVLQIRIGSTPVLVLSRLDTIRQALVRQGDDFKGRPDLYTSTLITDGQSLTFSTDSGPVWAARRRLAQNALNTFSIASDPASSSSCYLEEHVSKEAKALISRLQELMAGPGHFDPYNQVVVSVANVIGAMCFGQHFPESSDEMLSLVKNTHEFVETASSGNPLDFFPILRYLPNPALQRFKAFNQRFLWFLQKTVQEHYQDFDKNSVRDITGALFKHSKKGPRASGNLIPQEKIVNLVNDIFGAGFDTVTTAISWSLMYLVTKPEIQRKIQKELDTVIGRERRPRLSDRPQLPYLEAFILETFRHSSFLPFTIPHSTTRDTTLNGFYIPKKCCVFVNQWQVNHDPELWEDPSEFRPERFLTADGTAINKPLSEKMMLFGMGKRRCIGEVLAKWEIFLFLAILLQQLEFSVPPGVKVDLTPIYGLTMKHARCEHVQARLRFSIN
smiles,measurement,setting,value
N#Cc1c(O)nc(S)nc1-c1ccccc1,IC50,[1],15.7 µM (active)
COc1ccccc1N1CCN(C(=O)C2CCCN(S(=O)(=O)c3ccc4c(c3)oc(=O)n4C)C2)CC1 (stereo not given),IC50,[2],> 20 µM (inactive)
same,IC50,[3],> 20 µM (inactive)
same,IC50,[4],> 20 µM (inactive)
Cc1ccc2c(CC(=O)NCC3COc4ccccc4O3)coc2c1 (stereo not given),EC50,[5],0.986 µM (active)
O=C(CCC(=O)N1CCN(c2ccc(O)cc2)CC1)c1cccs1,IC50,[6],5.54 µM (active)
CCCCN1C(=O)/C(=C/C=C/C=C/Nc2ccccc2)SC1=S,EC50,[7],31.6 µM (active)
same,EC50,[8],24.6 µM (active)
same,EC50,[9],> 150 µM (not active)
same,EC50,[10],19.8 µM (active)
O=C(CCS(=O)(=O)c1ccc(Br)cc1)N1CCN(c2ccccc2Cl)CC1,EC50,[5],4.8 µM (active)
COc1ccc(Br)c(C(=O)OCc2cc(=O)oc3cc(C)ccc23)c1,EC50,[11],> 99 µM (inactive)
same,EC50,[12],> 99 µM (inactive)
COC(=O)CSc1cc([N+](=O)[O-])cc2c1c(C1OCCO1)nn2-c1ccccc1,EC50,[11],> 99 µM (inactive)
same,EC50,[12],> 99 µM (inactive)
CCOC(=O)c1ccc(N2C(=O)CC(N3CCC(O)(c4ccc(Cl)cc4)CC3)C2=O)cc1 (stereo not given),AC50,[13],2.97 µM (active)
Nc1c(C(=O)Nc2nccs2)sc2nc(-c3cccs3)cc(C(F)(F)F)c12,EC50,[11],> 99 µM (inactive)
same,EC50,[12],> 99 µM (inactive)
same,EC50,[14],2.76 µM (active)
CN1CCN(c2ccc([N+](=O)[O-])cc2C(=O)c2ccccc2)CC1,EC50,[7],39.6 µM (active)
same,EC50,[8],> 150 µM (not active)
same,EC50,[9],> 150 µM (not active)
same,EC50,[10],> 150 µM (not active)
O=C(COc1ccccc1)N(Cc1cccc(F)c1)C1CCS(=O)(=O)C1 (stereo not given),EC50,[15],> 350 µM (not active)
same,EC50,[16],> 350 µM (not active)
CC1CCC2(CC1)NC(=O)N(CC(=O)Nc1ccc(N3CCOCC3)cc1)C2=O (stereo not given),IC50,[1],58.6 µM (active)
ON=CNc1cccc2nonc12,EC50,[15],> 350 µM (not active)
same,EC50,[16],98.8 µM (active)
Cc1ccc(NC2SC(=O)N(Cc3cccc(C(=O)O)c3)C2=O)cc1 (stereo not given),IC50,[1],6.86 µM (active)
O=C(/C=C/c1ccc2c(c1)OCO2)Nc1cccnc1,EC50,[15],> 350 µM (not active)
same,EC50,[16],6.64 µM (active)
Oc1[nH]c2ccccc2c1N=Nc1ccccc1,EC50,[17],7.37 µM (inconclusive)
same,EC50,[18],18.3 µM (inconclusive)
same,EC50,[11],> 99 µM (inactive)
same,EC50,[12],54.6 µM (inactive)
Cc1nonc1NC(=O)CSc1nnc(-c2ccoc2C)n1-c1cccc(Cl)c1,EC50,[5],7.83 µM (active)
CN(C)c1ccc(NC(=O)CSc2nnc(-c3ccco3)c(-c3ccco3)n2)cc1,IC50,[6],6.98 µM (active)
CC1=C(C)CC(C(=O)NNC(=O)c2csc3c2CCC(C(C)(C)C)C3)C(C(=O)O)C1 (stereo not given),IC50,[1],8.98 µM (active)
NC(=O)COc1ccc(/C=C2\C(=O)ON=C2c2ccccc2)cc1,IC50,[19],67.7 µM (active)
Cc1ccccc1-c1nc(CS(=O)(=O)CC(=O)N(C)C2CCCCC2)c(C)o1,EC50,[5],1.26 µM (active)
COc1ccc(CSCC(=O)Nc2ccc(S(=O)(=O)N3CCCCCC3)cc2)cc1,EC50,[15],> 350 µM (not active)
same,EC50,[16],> 350 µM (not active)
COc1ccc(N2CCN(C(=O)c3ccc(Br)cc3)CC2)c([N+](=O)[O-])c1,AC50,[13],0.691 µM (active)
O=C(CSCC(=O)N1CCCCC1)Nc1nc(-c2cccs2)cs1,EC50,[5],0.595 µM (active)
O=[N+]([O-])c1ccc([S+]([O-])Cc2ccccc2)c([N+](=O)[O-])c1 (stereo not given),AC50,[13],2.17 µM (active)
Cc1cc(C)n2nc(C(=O)N/N=C/c3ccc(O)cc3)nc2n1,IC50,[6],43.9 µM (active)
CCCn1/c(=N/C(=O)c2c(-c3c(F)cccc3Cl)noc2C)c(C(=O)OCC)cc2c(=O)n3ccccc3nc21,EC50,[15],> 350 µM (not active)
same,EC50,[16],> 350 µM (not active)
O=C(O)c1nn(Cc2ccc(Cl)cc2Cl)c2ccccc12 [LONIDAMINE],IC50,[1],7.37 µM (active)
same,AC50,[20],39.8 µM (inconclusive)
